Measured values taken from publication PMC10747602, “Dose Response, Dosimetric, and Metabolic Evaluations of Replacement PFAS Perfluoro-(2,5,8-trimethyl-3,6,9-trioxadodecanoic) Acid (HFPO-TeA)” (Toxics, 2023).
Like-named read-outs stand apart in the source and are kept apart here.

Experiments:
[1] = parameters: method as in PMID 35436088; conditions: male mice, cited from earlier work
[2] = test system: Thyroid hormones T3, rT3, and T4; assay: Plasma thyroid hormone assessment; assay type: in vivo, Sprague Dawley rats; conditions: 5 days
Description: Information on the chemicals used in the plasma thyroid hormone analysis can be found in Supplementary Text S2 and Table S3. Thyroid hormones T3, rT3, and T4 were extracted from 20 µL of plasma (5 days) following the procedure outlined by O’Shaughnessy et al.. Briefly, plasma was spiked with internal standards ^13C6-T3, ^13C6-rT3, and ^13C6-T4, and extracted using Evolute CX SPE plates (10 mg, 1 mL, Biotage, Charlotte, NC, USA). Extracts were eluted using a positive pressure manifold. Refer to Supplementary Text S2 for complete details of the extraction method.
Targeted, quantitative analysis of the thyroid hormone levels was conducted using a 6500+ QTRAP liquid chromatography/mass spectrometer system (Sciex, Framingham, MA, USA) operated in positive ion multiple reaction monitoring (MRM) scan mode with electrospray ionization (ESI). […] Gradient elution was obtained using eluent A (0.1% formic acid; FA (aqueous)) and eluent B (MeOH with 0.1% FA). The gradient used is found in Table S4. Additional instrument parameters can be found in Table S5 and monitored transitions in Table S6. Statistical analysis is described in Supplementary Text S3. […]
Support ing Text S1: Chemicals
Chemicals used for solvent and mobile phases include methanol (MeOH), water (H2O), and acetonitrile (ACN) which were LC/MS grade and purchased from Honeywell Burdick & Jackson (Charlotte, NC, USA). Ethanol (EtOH) used as a solvent was ACS grade and purchased from Honeywell Burdick & Jackson. Ammonium formate (BioUltra purity) and ammonium acetate (99% pure) were used as mobile phase additives and obtained from Millipore Sigma (St. Louis, MO, USA). Formic acid (FA; 97.5% pure) was also used as an additive; it was purchased from Honeywell Fluka (Charlotte, NC, USA).
Detailed information for chemicals used for each analysis may be found in Table S1.
Support ing Text S2: Thyroid Hormone Chemicals and Analysis
3,3’,5-Triiodothyronine (Chemical Abstract Service Registry Number (CASRN) 6893-02-3 | U.S.
Environmental Protection Agency (U.S. EPA) Distributed Structure-Searchable Toxicity (DSSTox) substance identifier (DTXSID) DTXSID8023216 | T3; ˃ 99% pure), mass-labeled 3,3’,5-triiodothyronine […]
98% pure), mass-labeled 3,3’,5’-triiodothyronine hydrochloride (13C6-rT3; ˃ 99% pure), L-thyroxine […]
pure) were purchased from Cerilliant Corporation (Round Rock, Texas, USA).
Briefly, a 20 µL aliquot of plasma from each sample was loaded into individual wells of a 96-well collection plate. They were spiked with 5 µL of a 40 ng/mL 13C6-T3, 13C6-rT3 and 13C6-T4 mixed solution followed by 1N hydrochloric acid (HCl) (20 µL) (36.5-38%, Fisher Scientific. Waltham, MA, USA), H2O (100 µL), and a 50:50 H2O/ACN solution (vol/vol) (60 µL) containing 0.1% formic acid (FA). Samples were vortexed, incubated at 37 °C for 2 hours, and brought to room temperature. They were diluted with an aqueous 0.1% acetic acid solution (LC/MS grade, Honeywell Fluka) and vortexed. The SPE well plates (Evolute CX, 96-well SPE plate, 10 mg, 1 mL, Biotage, Charlotte, NC, USA), processed with a positive pressure manifold, were conditioned with methanol followed by an aqueous 0.1% acetic acid solution prior to sample loading with low pressure. Plate wells were washed with 0.1% acetic acid followed by methanol. Thyroid hormones were eluted into a collection plate with 2.5% ammonium hydroxide (NH4OH) (28-30%, Thermo Fisher Scientific, Waltham, MA, USA) in methanol. Extracts were then evaporated to dryness with nitrogen using a Turbovap (Biotage) then reconstituted in 100 µL of 25:75 ACN/H2O (vol/vol) with 0.1% acetic acid. Extracts were stored in amber micro-sampling vials (Agilent Technologies, Santa Clara, CA, USA) prior to instrumental analysis.
Samples were quantitated against matrix-matched calibration curves containing a minimum of 5 points spanning the range 0.005 – 25.00 ng/mL. Calibration standards were made by combining T3, rT3, and T4 analytes with the 13C6-T3, 13C6-rT3, and 13C6-T4 internal standards then with commercial rat […]

O=C(O)C(F)(OC(F)(F)C(F)(OC(F)(F)C(F)(OC(F)(F)C(F)(F)C(F)(F)F)C(F)(F)F)C(F)(F)F)C(F)(F)F (stereo not drawn) [HFPO-TeA, perfluoro-(2,5,8-trimethyl-3,6,9-trioxadodecanoic) acid]
experimental Kp ([1]; 0.02 mg/kg/day for 7 days): approximately 20
experimental Kp ([1]; 0.2 mg/kg/day for 7 days): ~40
experimental Kp ([1]; 2 mg/kg/day for 7 days): ~5
rT3 Conc. in plasma ([2]; 0.3 mg/kg/day, F, individual rats, LOQ 0.005 ng/mL): < LOQ
rT3 Conc. in plasma ([2]; 0.3 mg/kg/day, M, individual rats, LOQ 0.005 ng/mL): < LOQ
rT3 Conc. in plasma ([2]; 0.9 mg/kg/day, F, individual rats, LOQ 0.005 ng/mL): < LOQ
rT3 Conc. in plasma ([2]; 0.9 mg/kg/day, F, mean ± SD of replicates above LOQ (0.005 ng/mL)): <LOQ
rT3 Conc. in plasma ([2]; 0.9 mg/kg/day, M, individual rats, LOQ 0.005 ng/mL): < LOQ
rT3 Conc. in plasma ([2]; 0.9 mg/kg/day, M, mean ± SD of replicates above LOQ (0.005 ng/mL)): < LOQ
rT3 Conc. in plasma ([2]; 2.3 mg/kg/day, F, individual rats, LOQ 0.005 ng/mL): < LOQ
rT3 Conc. in plasma ([2]; 2.3 mg/kg/day, M, individual rats, LOQ 0.005 ng/mL): < LOQ
rT3 Conc. in plasma ([2]; 6.3 mg/kg/day, F, individual rats, LOQ 0.005 ng/mL): < LOQ
rT3 Conc. in plasma ([2]; 6.3 mg/kg/day, M, individual rats, LOQ 0.005 ng/mL): < LOQ
rT3 Conc. in plasma ([2]; 17 mg/kg/day, F, individual rats, LOQ 0.005 ng/mL): < LOQ
rT3 Conc. in plasma ([2]; 17 mg/kg/day, M, individual rats, LOQ 0.005 ng/mL): < LOQ
